Assay [1] deals with Wee1-like protein kinase (Homo sapiens) (UniProt P30291). Briefly: Inhibition of human WEE1 assessed as residual activity at 1 uM using poly(Ala,Glu,Lys,Tyr)6:2:5:1 as substrate in presence of 33P-ATP by ProQinase assay relative to control.
The target of assay [2] is Inhibitor of nuclear factor kappa-B kinase subunit beta (Homo sapiens) (UniProt O14920). Briefly: Inhibition of IKK-beta (unknown origin) assessed as remaining activity at 1 uM by Kinome scan method relative to control.
In assay [3] the target is CDK7/Cyclin H/MNAT1 (Homo sapiens) (UniProt P51946+P50613+P51948). Briefly: Inhibition of human CDK7/CyclinH/MAT1 assessed as residual activity at 1 uM using RBER-CHKtide as substrate in presence of 33P-ATP by ProQinase assay relative to control. Format: protein-complex assay.
In assay [4] the target is T1, Serine/threonine-protein kinase DCLK2 (Homo sapiens) (UniProt Q8N568).
T1 sequence (whole entry): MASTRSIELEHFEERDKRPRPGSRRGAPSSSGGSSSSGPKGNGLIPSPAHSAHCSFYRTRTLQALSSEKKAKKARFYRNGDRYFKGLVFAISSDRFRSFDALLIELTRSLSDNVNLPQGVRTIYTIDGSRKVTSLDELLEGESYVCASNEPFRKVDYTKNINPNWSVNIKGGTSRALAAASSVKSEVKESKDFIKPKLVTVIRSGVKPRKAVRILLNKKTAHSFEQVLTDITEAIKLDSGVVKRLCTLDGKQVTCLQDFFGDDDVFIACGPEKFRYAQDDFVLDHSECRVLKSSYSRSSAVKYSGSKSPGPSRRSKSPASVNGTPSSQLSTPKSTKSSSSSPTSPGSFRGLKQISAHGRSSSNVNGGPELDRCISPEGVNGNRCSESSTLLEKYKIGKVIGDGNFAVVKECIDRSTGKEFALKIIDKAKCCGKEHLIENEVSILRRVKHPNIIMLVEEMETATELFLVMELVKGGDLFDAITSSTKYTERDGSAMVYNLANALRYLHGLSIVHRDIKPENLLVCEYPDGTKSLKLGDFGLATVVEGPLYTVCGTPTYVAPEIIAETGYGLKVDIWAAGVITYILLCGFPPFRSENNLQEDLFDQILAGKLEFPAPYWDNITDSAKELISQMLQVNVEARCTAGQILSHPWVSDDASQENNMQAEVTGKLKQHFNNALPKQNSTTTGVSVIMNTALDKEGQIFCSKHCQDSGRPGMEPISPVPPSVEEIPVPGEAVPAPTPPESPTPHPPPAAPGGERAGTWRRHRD
Briefly: Inhibition of human DCAMKL2 assessed as residual activity at 1 uM using RBER-CHKtide as substrate in presence of 33P-ATP by ProQinase assay relative to control.

Assay [5] deals with Casein kinase II subunit alpha' (Homo sapiens) (UniProt P19784). Briefly: Inhibition of human CK2alpha2 assessed as residual activity at 1 uM using casein as substrate in presence of 33P-ATP by ProQinase assay relative to control.
In assay [6] the target is Ribosomal protein S6 kinase beta-1 (Homo sapiens) (UniProt P23443). Briefly: Inhibition of human S6K1 assessed as residual activity at 1 uM using RBER-GSK3(14-27) as substrate in presence of 33P-ATP by ProQinase assay relative to control.
The target in assay [7] is RAC-gamma serine/threonine-protein kinase (Homo sapiens) (UniProt Q9Y243). Briefly: Inhibition of human AKT3 assessed as residual activity at 1 uM using RBER-GSK3(14-27) as substrate in presence of 33P-ATP by ProQinase assay relative to control.
For assay [8], the target named is Serine/threonine-protein kinase NIM1 (Homo sapiens) (UniProt Q8IY84). Briefly: Inhibition of NIM1 (unknown origin) assessed as remaining activity at 1 uM by Kinome scan method relative to control.
Assay [9] is described as follows: Anti-inflammatory activity against human derived medium respond PBMC cells assessed as inhibition in stimulated IL-8 cytokine release incubated for 2 hrs in the presence of LPS/SEB/aCD28 by Luminex based sandwich immunoassay. Format: functional, cell-based.
For assay [10], the target named is Protein kinase C gamma type (Homo sapiens) (UniProt P05129). Briefly: Inhibition of human PKCgamma assessed as residual activity at 1 uM using 3xChocktide-PKC(19-31) as substrate in presence of 33P-ATP by ProQinase assay relative to control.
The target of assay [11] is Protein-tyrosine kinase 2-beta (Homo sapiens) (UniProt Q14289). Briefly: Inhibition of human PYK2 assessed as residual activity at 1 uM using polyEY as substrate in presence of 33P-ATP by ProQinase assay relative to control.
The target of assay [12] is Protein-tyrosine kinase 6 (Homo sapiens) (UniProt Q13882). Briefly: Inhibition of human BRK assessed as residual activity at 1 uM using PolyEY as substrate in presence of 33P-ATP by ProQinase assay relative to control.
Assay [13] has as its target Serine/threonine-protein kinase B-raf (Homo sapiens) (UniProt P15056). Briefly: Inhibition of BRAF (unknown origin) assessed as remaining activity at 1 uM by Kinome scan method relative to control.
For assay [14], the target named is Fibroblast growth factor receptor 4 (Homo sapiens) (UniProt P22455). Briefly: Inhibition of human FGFR4 assessed as residual activity at 1 uM using polyEy as substrate in presence of 33P-ATP by ProQinase assay relative to control.
The target of assay [15] is Mitogen-activated protein kinase kinase kinase 3 (Homo sapiens) (UniProt Q99759). Briefly: Inhibition of human MEKK3 assessed as residual activity at 1 uM using casein as substrate in presence of 33P-ATP by ProQinase assay relative to control.
Assay [16] addresses Misshapen-like kinase 1 (Homo sapiens) (UniProt Q8N4C8). Briefly: Inhibition of human MINK1 assessed as residual activity at 1 uM using RBER-CHKtide as substrate in presence of 33P-ATP by ProQinase assay relative to control.
The target of assay [17] is Rho-associated protein kinase 1 (Homo sapiens) (UniProt Q13464). Briefly: Inhibition of human ROCK1 assessed as residual activity at 1 uM using 3xChocktide-PKC(19-31) as substrate in presence of 33P-ATP by ProQinase assay relative to control.
For assay [18], the system named is Phosphatidylinositol 4,5-bisphosphate 3-kinase catalytic subunit alpha isoform (Homo sapiens), P42336 [E545A]. Briefly: Inhibition of PIK3CA E545A mutant (unknown origin) assessed as remaining activity at 1 uM by Kinome scan method relative to control.
Assay [19] addresses Proto-oncogene tyrosine-protein kinase receptor Ret (Homo sapiens) (UniProt P07949). Briefly: Inhibition of human RET assessed as residual activity at 1 uM using polyEY as substrate in presence of 33P-ATP by ProQinase assay relative to control.
In assay [20] the target is Wee1-like protein kinase 2 (Homo sapiens) (UniProt P0C1S8). Briefly: Inhibition of WEE2 (unknown origin) assessed as remaining activity at 1 uM by Kinome scan method relative to control.
The target in assay [21] is G protein-coupled receptor kinase 4 (Homo sapiens) (UniProt P32298). Briefly: Inhibition of human GRK4 assessed as residual activity at 1 uM using casein as substrate in presence of 33P-ATP by ProQinase assay relative to control.

pIC50: −log10 of the molar value.

Chain of Misshapen-like kinase 1 (Homo sapiens) (Q8N4C8 whole entry, looked up): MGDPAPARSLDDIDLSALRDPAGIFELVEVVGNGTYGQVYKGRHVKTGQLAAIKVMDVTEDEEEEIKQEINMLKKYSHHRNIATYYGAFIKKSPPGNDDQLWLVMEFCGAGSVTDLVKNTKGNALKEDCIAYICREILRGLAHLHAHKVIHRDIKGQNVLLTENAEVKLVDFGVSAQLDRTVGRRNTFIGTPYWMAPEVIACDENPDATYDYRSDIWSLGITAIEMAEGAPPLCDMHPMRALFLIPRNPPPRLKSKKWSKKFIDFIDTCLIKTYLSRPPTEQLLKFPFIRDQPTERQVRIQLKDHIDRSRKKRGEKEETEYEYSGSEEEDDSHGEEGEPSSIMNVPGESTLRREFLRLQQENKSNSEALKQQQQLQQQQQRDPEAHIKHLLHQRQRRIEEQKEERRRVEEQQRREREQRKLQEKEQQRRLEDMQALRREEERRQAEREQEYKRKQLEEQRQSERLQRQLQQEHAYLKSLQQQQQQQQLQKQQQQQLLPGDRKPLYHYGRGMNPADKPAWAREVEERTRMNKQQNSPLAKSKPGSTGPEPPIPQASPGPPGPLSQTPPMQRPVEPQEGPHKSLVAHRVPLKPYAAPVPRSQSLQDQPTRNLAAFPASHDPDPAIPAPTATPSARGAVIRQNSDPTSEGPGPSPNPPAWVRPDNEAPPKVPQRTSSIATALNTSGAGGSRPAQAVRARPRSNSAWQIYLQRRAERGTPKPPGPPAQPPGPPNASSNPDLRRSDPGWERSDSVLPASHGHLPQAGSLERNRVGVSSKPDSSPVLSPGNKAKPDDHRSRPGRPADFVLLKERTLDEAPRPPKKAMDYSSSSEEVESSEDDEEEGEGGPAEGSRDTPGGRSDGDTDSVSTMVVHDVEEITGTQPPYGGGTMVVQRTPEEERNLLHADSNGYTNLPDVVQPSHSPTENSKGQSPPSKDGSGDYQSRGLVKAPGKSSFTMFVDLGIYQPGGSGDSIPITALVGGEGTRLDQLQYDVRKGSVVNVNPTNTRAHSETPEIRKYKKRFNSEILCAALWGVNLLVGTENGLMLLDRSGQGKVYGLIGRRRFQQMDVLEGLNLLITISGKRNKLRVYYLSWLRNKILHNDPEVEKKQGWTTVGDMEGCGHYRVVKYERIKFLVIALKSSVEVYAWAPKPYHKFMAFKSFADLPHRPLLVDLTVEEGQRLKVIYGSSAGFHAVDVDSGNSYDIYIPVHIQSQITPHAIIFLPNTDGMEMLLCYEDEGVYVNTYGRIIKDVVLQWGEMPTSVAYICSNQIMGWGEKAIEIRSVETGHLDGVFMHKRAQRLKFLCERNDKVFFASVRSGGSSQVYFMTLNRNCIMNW
Chain of RAC-gamma serine/threonine-protein kinase (Homo sapiens) (Q9Y243 whole entry): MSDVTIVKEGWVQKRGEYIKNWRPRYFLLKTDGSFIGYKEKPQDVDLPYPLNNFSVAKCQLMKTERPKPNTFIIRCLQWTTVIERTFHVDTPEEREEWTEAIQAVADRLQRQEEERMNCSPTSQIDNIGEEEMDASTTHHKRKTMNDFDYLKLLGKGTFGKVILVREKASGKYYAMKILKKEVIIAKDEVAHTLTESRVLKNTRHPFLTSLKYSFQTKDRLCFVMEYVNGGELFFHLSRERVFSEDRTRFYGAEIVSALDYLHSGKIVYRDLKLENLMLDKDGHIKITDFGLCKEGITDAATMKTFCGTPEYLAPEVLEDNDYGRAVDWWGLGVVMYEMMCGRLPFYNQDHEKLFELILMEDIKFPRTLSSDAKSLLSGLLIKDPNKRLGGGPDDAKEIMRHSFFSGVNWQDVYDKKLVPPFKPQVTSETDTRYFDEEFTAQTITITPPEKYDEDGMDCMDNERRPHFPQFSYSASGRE
Chain of Mitogen-activated protein kinase kinase kinase 3 (Homo sapiens) (Q99759 whole entry): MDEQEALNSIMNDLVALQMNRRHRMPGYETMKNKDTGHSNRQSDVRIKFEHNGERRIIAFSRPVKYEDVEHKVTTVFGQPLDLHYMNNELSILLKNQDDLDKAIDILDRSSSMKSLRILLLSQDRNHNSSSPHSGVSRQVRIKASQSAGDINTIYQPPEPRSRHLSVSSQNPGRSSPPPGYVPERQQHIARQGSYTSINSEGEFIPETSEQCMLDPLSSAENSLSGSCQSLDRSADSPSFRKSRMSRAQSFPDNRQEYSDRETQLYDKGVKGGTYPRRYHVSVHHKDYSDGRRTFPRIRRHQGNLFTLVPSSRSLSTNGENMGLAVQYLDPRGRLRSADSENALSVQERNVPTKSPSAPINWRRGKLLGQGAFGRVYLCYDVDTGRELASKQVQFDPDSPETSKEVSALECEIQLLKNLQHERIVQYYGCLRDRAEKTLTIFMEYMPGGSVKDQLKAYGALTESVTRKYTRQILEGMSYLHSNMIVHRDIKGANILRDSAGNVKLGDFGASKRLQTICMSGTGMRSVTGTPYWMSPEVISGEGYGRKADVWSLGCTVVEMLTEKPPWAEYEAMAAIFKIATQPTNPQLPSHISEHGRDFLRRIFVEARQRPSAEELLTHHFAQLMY
Chain of Inhibitor of nuclear factor kappa-B kinase subunit beta (Homo sapiens) (O14920 whole entry): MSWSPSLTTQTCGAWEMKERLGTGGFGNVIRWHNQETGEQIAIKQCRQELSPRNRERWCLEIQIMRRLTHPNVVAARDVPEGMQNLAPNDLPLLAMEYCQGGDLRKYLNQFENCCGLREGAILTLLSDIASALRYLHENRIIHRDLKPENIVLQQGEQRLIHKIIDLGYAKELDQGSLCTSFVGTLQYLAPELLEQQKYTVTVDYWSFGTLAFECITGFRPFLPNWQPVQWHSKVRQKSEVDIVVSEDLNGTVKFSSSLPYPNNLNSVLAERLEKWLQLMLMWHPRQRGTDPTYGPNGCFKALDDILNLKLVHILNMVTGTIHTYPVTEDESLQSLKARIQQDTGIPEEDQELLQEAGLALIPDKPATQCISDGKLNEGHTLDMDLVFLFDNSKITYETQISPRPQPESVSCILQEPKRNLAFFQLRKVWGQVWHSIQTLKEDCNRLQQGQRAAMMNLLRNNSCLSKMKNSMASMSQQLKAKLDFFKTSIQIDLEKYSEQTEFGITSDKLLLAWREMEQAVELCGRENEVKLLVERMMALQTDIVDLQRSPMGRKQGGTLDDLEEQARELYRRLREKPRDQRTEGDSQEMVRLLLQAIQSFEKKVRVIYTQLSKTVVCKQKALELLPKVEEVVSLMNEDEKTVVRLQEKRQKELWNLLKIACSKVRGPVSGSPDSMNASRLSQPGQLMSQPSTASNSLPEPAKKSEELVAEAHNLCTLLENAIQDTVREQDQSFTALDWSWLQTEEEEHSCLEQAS
Chain of Ribosomal protein S6 kinase beta-1 (Homo sapiens) (P23443 whole entry, looked up): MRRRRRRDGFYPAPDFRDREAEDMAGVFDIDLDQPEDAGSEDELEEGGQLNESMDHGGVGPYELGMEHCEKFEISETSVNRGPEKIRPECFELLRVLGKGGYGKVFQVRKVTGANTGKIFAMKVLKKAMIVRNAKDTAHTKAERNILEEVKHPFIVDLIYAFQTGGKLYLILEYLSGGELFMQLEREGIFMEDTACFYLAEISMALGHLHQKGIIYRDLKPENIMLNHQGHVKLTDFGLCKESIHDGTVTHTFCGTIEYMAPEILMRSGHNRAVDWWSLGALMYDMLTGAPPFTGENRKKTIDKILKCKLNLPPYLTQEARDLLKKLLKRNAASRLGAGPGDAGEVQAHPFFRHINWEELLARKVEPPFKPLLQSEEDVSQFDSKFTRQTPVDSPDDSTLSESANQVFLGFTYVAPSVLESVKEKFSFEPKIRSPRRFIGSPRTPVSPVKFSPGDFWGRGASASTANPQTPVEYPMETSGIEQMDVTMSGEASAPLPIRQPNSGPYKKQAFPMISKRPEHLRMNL
Chain of Proto-oncogene tyrosine-protein kinase receptor Ret (Homo sapiens) (P07949 whole entry): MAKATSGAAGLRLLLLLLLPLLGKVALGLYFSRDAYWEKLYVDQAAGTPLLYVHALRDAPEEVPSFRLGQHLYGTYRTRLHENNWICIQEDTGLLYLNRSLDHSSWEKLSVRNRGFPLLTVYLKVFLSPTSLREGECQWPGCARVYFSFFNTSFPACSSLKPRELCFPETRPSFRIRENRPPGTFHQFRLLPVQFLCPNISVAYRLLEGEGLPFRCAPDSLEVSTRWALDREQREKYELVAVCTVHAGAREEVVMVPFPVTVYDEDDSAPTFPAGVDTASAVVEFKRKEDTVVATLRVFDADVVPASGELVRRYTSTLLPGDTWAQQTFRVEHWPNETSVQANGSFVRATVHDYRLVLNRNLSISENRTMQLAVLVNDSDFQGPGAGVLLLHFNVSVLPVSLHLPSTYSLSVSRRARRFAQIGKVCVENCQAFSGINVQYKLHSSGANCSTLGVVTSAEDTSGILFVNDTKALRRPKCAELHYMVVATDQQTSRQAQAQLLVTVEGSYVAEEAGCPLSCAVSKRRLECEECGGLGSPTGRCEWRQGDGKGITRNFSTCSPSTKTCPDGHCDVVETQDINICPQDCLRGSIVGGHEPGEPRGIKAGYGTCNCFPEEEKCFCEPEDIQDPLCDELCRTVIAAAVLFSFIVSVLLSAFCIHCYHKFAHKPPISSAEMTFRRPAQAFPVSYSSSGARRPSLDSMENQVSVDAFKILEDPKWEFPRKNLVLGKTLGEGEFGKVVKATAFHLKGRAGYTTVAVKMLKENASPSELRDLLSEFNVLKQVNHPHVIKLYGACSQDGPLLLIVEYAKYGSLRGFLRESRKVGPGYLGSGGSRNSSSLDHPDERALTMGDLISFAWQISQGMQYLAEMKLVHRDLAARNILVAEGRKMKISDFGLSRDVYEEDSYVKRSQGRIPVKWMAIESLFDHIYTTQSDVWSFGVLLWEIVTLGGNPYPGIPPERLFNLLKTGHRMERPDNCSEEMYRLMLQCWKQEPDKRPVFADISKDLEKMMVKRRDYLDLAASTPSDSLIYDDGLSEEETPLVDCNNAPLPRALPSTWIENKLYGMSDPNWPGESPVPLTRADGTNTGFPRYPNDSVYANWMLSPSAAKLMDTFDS

Usually pIC50 stands for the negative decadic logarithm of the IC50, by convention in mol/L. `O=C1c2ccc(Nc3ccc(F)cc3F)cc2CCc2ccc(OC[C@H](O)CO)cc21` [Skepinone-L]: the Activity was 88% in assay [1]; 100% in assay [2]; 107% in assay [3]; 83% in assay [4]; 87% in assay [5]; 85% in [6]. In addition, the Activity stood at 94% in assay [7]; 100% in assay [8]; 99% in [10]; 102% in assay [11]; 84% in assay [12]; 100% in [13]. Moreover, the Activity in [14] was found to be 103%; in assay [15], 96%; in assay [16], 94%; in [17] it was 97%; in assay [18] it was 100%; in assay [19], 102%. In addition, the Activity in assay [20] was found to be 90%; in [21], 100%. For the same molecule, in assay [9], the pIC50 is 7.22.

The record behind these values is ChEMBL document CHEMBL5696441 (Nat Chem Biol, 2011).
